Counter-ions that a name gives are not always drawn.
Experiments:
[1] = biological target: T1, dopaminergic transporter DAT (Mus musculus, UniProt Q61327); assay: [3H] Win 35,428 binding on DAT receptor of ES-derived dopaminergic neurons, with and without GBR 12909; conditions: cells incubated with 10 μm GBR 12909 hydrochloride; 5 nM ligand; 6 well plates
T1 construct: After 16 days of differentiations, cells were incubated with [^3H]; Win35, 428 for 1 hour; endogenous in cells; host or cells: dopaminergic neurons differentiated from mouse embryonic stem cells (CGR8 line)
Procedure: Cells were incubated on binding buffer containing 5 nM of the ligand at different time (30 to 60 minutes), with and without 10 μm of GBR 12909 hydrochloride. […] Radioactivity measured by liquid scintillation counter (WALLAC).
Win 35,428 binding to DAT receptor and DA-neurons in 96-well plate, cells were plated at the density of 60 cells/well.
After 16 days of differentiations, cells were incubated with [^3H] Win35, 428 for 1 hour and then washed by binding buffer for 1 minute, following by direct counting using liquid scintillation counter (WALLAC).
In detail, the binding assay was performed at 4° C. in phosphate-buffered saline (PBS) (Invitrogen/Gibco) containing 0.32 M sucrose with Ca^2+ and Mg^2+. Cells in each well were washed one time with 0.5 ml of phosphatebuffered. Then incubated at various time (30 to 60 min) with various amounts (5 to 10 nM) of [^3H] Win 35,428. The non specific binding was determined in the presence or not of 10 μM of GBR-12909 hydrochloride. The incubation was stopped by rinsing the cells three times with ice-cold buffer to eliminate non-linked [^3H] Win 35,428 and removal of cells. Cells were detached by a rake and transferred into a 96 well plate. Radioactivity was measured by a liquid scintillation counter (WALLAC).

[2] = test system: Engineered neural tissues (ENTs); assay: Neurotoxicology testing platform, electrical activity of engineered neural tissues; type: cell-based, mouse; conditions: ENTs (FIG. 13)
Procedure: Engineered neural tissues (ENTs) (a similar scheme could be applied to dopaminergic neurons provided according to certain aspects of the present invention) can be used for establishment of a neurotoxicology testing platform (FIG. 12). […] Mouse ENTs differentiated for 21 days were exposed to putative neurotoxic for 24 hours and spontaneous electrical activity was measured for the neurotoxicity testing (FIG. 14). Electrophysiological characterizations of ENTs include characterization of spontaneous activity such as spike frequency, spike amplitude, burst frequency (number of bursts per second), or number of spikes per burst, or characterization of evoked filed potentials such as amplitude of responses, paired-pulse inhibition, or input/output curve. The electrophysiological characterization of ENTs can be carried out by a multi-electrode array (FIG. 16).

T1 sequence (Q61327 whole entry): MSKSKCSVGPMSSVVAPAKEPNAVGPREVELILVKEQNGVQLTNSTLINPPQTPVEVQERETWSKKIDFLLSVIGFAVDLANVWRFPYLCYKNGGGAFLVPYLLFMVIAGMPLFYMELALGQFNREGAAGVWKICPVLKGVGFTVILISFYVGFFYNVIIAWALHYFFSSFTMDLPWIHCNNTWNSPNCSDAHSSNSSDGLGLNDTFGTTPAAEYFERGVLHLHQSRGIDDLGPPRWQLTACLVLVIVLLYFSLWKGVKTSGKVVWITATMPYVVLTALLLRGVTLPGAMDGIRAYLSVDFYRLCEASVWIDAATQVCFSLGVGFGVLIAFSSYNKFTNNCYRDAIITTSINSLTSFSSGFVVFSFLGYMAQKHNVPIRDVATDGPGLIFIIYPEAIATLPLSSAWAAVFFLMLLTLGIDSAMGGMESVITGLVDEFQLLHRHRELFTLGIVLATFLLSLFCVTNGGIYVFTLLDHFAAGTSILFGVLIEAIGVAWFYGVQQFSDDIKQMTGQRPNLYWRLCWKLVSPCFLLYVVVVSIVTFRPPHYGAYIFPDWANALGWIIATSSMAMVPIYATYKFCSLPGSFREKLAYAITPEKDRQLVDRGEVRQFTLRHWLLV

Structure (SMILES)	non-specific binding as share of the total binding of [3H] Win 35,428 [1]	epileptogenic activity [2]
Fc1ccc(C(OCCN2CCN(CCCc3ccccc3)CC2)c2ccc(F)cc2)cc1 [GBR 12909 hydrochloride]	50%	
COc1cc2c(c(OC)c1OC)-c1ccc(OC)c(=O)cc1[C@@H](NC(C)=O)CC2 [colchicine]		demonstrated
